Experiments:
Experiment in all cases: relative viability (nuclei count vs DMSO), 5 days (fraction); higher = more cells survive
Erlotinib + Alpelisib = compound: C#Cc1cccc(Nc2ncnc3cc(OCCOC)c(OCCOC)cc23)c1 [Erlotinib] + Cc1nc(NC(=O)N2CCC[C@H]2C(N)=O)sc1-c1ccnc(C(C)(C)C(F)(F)F)c1 [Alpelisib] (partner 2 µM)
How it was run: (§1)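 One day after seeding in 1536-well plates, lung cancer cell lines were dosed by pin tool. Dosing was either single-drug or a fixed anchor-drug dose plus five library-drug doses (not always all listed) in √10 steps. After 5 days, nuclei were stained in one fix-and-stain step and counted on 4× images, and relative viability is the nuclei count of treated wells over that of vehicle wells, given as the median of duplicate plates.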

Erlotinib + Vorinostat = compound: C#Cc1cccc(Nc2ncnc3cc(OCCOC)c(OCCOC)cc23)c1 [Erlotinib] + O=C(CCCCCCC(=O)Nc1ccccc1)NO [Vorinostat] (partner 1 µM)
How it was run: as §1

AT9283 + Navitoclax = compound: O=C(Nc1c[nH]nc1-c1nc2ccc(CN3CCOCC3)cc2[nH]1)NC1CC1 [AT9283] + CC1(C)CCC(c2ccc(Cl)cc2)=C(CN2CCN(c3ccc(C(=O)NS(=O)(=O)c4ccc(N[C@H](CCN5CCOCC5)CSc5ccccc5)c(S(=O)(=O)C(F)(F)F)c4)cc3)CC2)C1 [Navitoclax] (partner 0.5 µM)
How it was run: as §1

AT9283 + OSI-027 = compound: O=C(Nc1c[nH]nc1-c1nc2ccc(CN3CCOCC3)cc2[nH]1)NC1CC1 [AT9283] + COc1cccc2cc(-c3nc([C@H]4CC[C@H](C(=O)O)CC4)n4ncnc(N)c34)[nH]c12 [OSI-027] (partner 0.5 µM)
How it was run: as §1

AT9283 + Pemetrexed = compound: O=C(Nc1c[nH]nc1-c1nc2ccc(CN3CCOCC3)cc2[nH]1)NC1CC1 [AT9283] + Nc1nc2[nH]cc(CCc3ccc(C(=O)N[C@@H](CCC(=O)O)C(=O)O)cc3)c2c(=O)[nH]1 [Pemetrexed] (partner 0.2 µM)
How it was run: as §1

Cell Line	relative viability (Erlotinib + Alpelisib; first compound 0.02 µM)	relative viability (Erlotinib + Alpelisib; first compound 0.2 µM)	relative viability (Erlotinib + Alpelisib; first compound 0.6325 µM)	relative viability (Erlotinib + Vorinostat; first compound 0.02 µM)	relative viability (Erlotinib + Vorinostat; first compound 0.6325 µM)	relative viability (Erlotinib + Vorinostat; first compound 2 µM)	relative viability (AT9283 + Navitoclax; first compound 0.003 µM)	relative viability (AT9283 + Navitoclax; first compound 0.03 µM)	relative viability (AT9283 + Navitoclax; first compound 0.09487 µM)	relative viability (AT9283 + Navitoclax; first compound 0.3 µM)	relative viability (AT9283 + OSI-027; first compound 0.003 µM)	relative viability (AT9283 + OSI-027; first compound 0.03 µM)	relative viability (AT9283 + OSI-027; first compound 0.09487 µM)	relative viability (AT9283 + OSI-027; first compound 0.3 µM)	relative viability (AT9283 + Pemetrexed; first compound 0.003 µM)	relative viability (AT9283 + Pemetrexed; first compound 0.03 µM)	relative viability (AT9283 + Pemetrexed; first compound 0.09487 µM)	relative viability (AT9283 + Pemetrexed; first compound 0.3 µM)	relative viability (Erlotinib + Alpelisib; first compound 2 µM)	relative viability (Erlotinib + Vorinostat; first compound 0.2 µM)
201T	0.999	0.968	0.966	0.573	0.89	0.816	1.24	1.21	1.21	0.524	0.663	0.776	0.188	0.206	0.292	0.297	0.279	0.306		
A549	0.709	0.68	0.728				1.14	0.0945	0.0413	0.0451									0.595	
A-427	1	1.04	1.12	0.844	0.932	0.892	1.05	0.691	0.174	0.167	0.421	0.326	0.159	0.176	0.979	0.767	0.272	0.299	1.05	0.834
ABC-1	1.09	1.2	1.01		1.34	0.985					0.436	0.245	0.213	0.201					0.92	1.13
BEN	1.08	1.01	1.26	0.66	0.637	0.547	0.0788	0.0854	0.0605	0.0596	0.31	0.296	0.24	0.219	0.622	0.692	0.361	0.365		0.523
CAL-12T	1.16	0.859	0.56	0.763	0.359	0.313	1.47	0.879	0.261	0.21	0.718	0.599	0.216	0.17	1.36	1.03	0.572	0.31	0.371	0.54
COR-L23	0.84	0.719	0.836	0.583	0.489	0.362	0.964	0.301	0.123	0.126	0.755	0.658	0.245	0.153	0.213	0.165	0.137	0.137	0.553	0.423
COR-L 105	1.09	0.659	0.477	0.776	0.425	0.377	0.83	0.27	0.293	0.281	0.606	0.292	0.284	0.231	1.08	0.699	0.341	0.422	0.243	0.564
Calu-6	0.983	1.06	1.04				0.794	0.113	0.134	0.102									0.909	
ChaGo-K-1				0.784	0.82	0.74	0.694	0.746	0.244	0.299	0.54	0.575	0.279	0.189	0.239	0.247	0.188	0.166		0.721
EBC-1	0.792	0.772	0.757				0.461	0.203	0.145	0.17									0.792	
EKVX	0.835	0.403	0.315	0.716	0.323	0.259	0.697	0.861	0.435	0.264	0.661	0.655	0.503	0.26	0.436	0.352	0.211	0.204	0.116	0.372
EMC-BAC-2	0.762	0.649	0.685		0.524	0.446	1.23	0.785	0.199	0.25	0.369	0.325	0.197	0.149	0.466	0.414	0.367	0.266	0.542	0.543
EPLC-272H	1.01	0.979	0.818	0.459	0.396	0.292	0.984	1.05	1.1	0.138	0.287	0.312	0.209	0.224	0.358	0.212	0.177	0.138	0.679	0.411
H3255	0.674	0.34	0.16	0.705	0.628	0.206	0.513	0.499	0.216	0.105	0.683	0.659	0.548	0.306	0.544	0.553	0.46	0.238	0.13	0.817
HARA	0.946	0.619	0.646	0.643	0.402	0.445	1.1	0.129	0.0715	0.101	0.612	0.327	0.073	0.0736	0.217	0.239	0.167	0.166	0.256	0.598
